Source: patent publication US4818441A, “Quinine derivatines” (Takeda Chemical Industries, Ltd., priority 1979, dated 1989)

Columns and labels:
[1] = tested on: isolated guinea pig trachea; assay: Tracheal muscle relaxant activity; conditions: Cavia porcellus, relaxant effect of noradrenaline taken as 100, read-out: Tracheal muscle relaxant action; for Emax at 30 µg/mL: 3 × 10^-5 g/ml; for Emax at 100 µg/mL: 10^-4 g/ml
Description: Thus, the isolated guinea pig trachea was cut into a strip in accordance with the method of Kiyomoto et al. [Yamaura Y. ed. "Zensoku (Asthma)", Kodansha, Tokyo, p. 152, 1974 (Japanese language)], set up in a Magnus device and kept at constant contraction with potassium chloride solution five times the concentration of Tyrode solution. Under the above conditions, a solution of the drug in DMF was added and the muscle relaxant effect was recorded on a kymograph.
^(1) With the relaxant effect of noradrenaline being taken as 100.

[2] = tested on: beef heart muscle phosphodiesterase; assay: Phosphodiesterase inhibitory activity; assay type: biochemical; conditions: 1 mM
Description: Since lysosomal membrane-stabilizing activity is developed through adenosine-[…]-cyclic monophosphate (c-AMP) of tissue cells, the action of compound (I) on c-AMP phosphodiesterase, the c-AMP decomposing enzyme, was investigated. […] Therefore, it was confirmed, if only from this fact, that the compound according to this invention has a membrane-stabilizing activity.
(2) The rate of decomposition of adenosine-[…]-cyclic phosphate by beef heart muscle phosphodiesterase was compared with the rate found in the absence of the test compound.

[3] = tested on: Rat liver lysosome; assay: Lysosomal membrane stabilizing activity (release of β-glucuronidase and acid phosphatase); assay type: biochemical; conditions: 37° C., 90 minutes
Description: (1) Rat liver lysosome was incubated at 37° C. for 90 minutes and the activities of β-glucuronidase and acid phosphatase released from the lysosome due to instabilization of the membrane during that time were assayed and compared with the results obtained in the absence of the test compound. The test compound was added as dissolved in dimethylformamide.

[4] = tested on: ubiquinone-deficient enzyme preparation from beef heart mitochondria (succinate oxidase); assay: Electron transport activity (succinate oxidase activity of ubiquinone-deficient enzyme preparation); assay type: biochemical; conditions: level of addition 5 n mole; control 7.1 ± 2.8
Description: Thus, the compound of this invention was added to a ubiquinone-deficient enzyme preparation made from beef heart mitochondria and the electron transport activity was investigated by assaying the succinate oxidase activity.
*The ubiquinonedeficient enzyme preparation was prepared from beef heart
mitochondria in accordance with the method of Lester and Fleischer
(Biochem. Biophys. Acta, 47, 358, 1961). The electron transport activity
was investigated by assaying the succinate oxidase activity.
**The composition of the reaction system (2 ml) was as follows. 0.2 M
sucrose, 10 mM TrisHCl (pH 7.4), 20 mM KCl, 3 mM MgCl2, […]
2Na, enzyme protein 1.99 mg, 50 μM potassium succinate, cytochrome C
0.2 mg. 1% Nikkol OP10 (produced by Nikko Chemicals Co. Ltd.) 5 μl
(control group) or 5 μl of a 1 mM solution of the test compound in 1%
Nikkol OP10. The oxygen consumption of this solution was measured with an
oxygen electrode device (Gilson Medical Electronics' Inc.).

[5] = tested on: rats with spontaneous hypertension (Ta:SHR); assay: Blood pressure of Ta:SHR, incorporated in feed; assay type: in vivo, rat; conditions: 6-16 mg/kg/day in feed, mean ± standard error
Description: (§1) Thus, 21-week rats with spontaneous hypertension (Ta:SHR) were organized into groups of 8 to 10 individuals each, and one of the present compounds, i.e. 6-(6-hydroxy-3-methyl-3-hexenyl)-2,3-dimethoxy-5-methyl-1,4-benzoquinone (formula (I) wherein R:H3 CO, n:O, R2 :H, R1 :(CH2)3 OH, α β:double bond), and, as controls, ubiquinone homologs (ubiquinone-7 and ubiquinone-10) were each administered by oral gavage in doses of 10 mg/kg/day for 2 weeks (except on Sunday) or administered as incorporated in feed at the rate of 6 to 16 mg/kg/day for 4 weeks. Blood pressures were measured every week, and as for the oral gavage administration group, the blood was withdrawn from the abdominal aorta at the end of the administration period while each animal was kept under anesthesia with pentobarbital sodium (30 mg/kg, intraperitoneal). Then, the kidneys, liver, heart and adrenals were enucleated and weighed. At two weeks in the case of the oral gavage administration group (Table 3) or during week-1 through week-4 in the case of the feed incorporation group (Table 4), antihypertensive effects were observed. […] Since it is generally acknowledged that, in the case of ubiquinone homologs, such hypotensive effects are attributable to a depression of the ubiquinone (Q) deficiency in mitochondria, the degree of Q deficiency of heart mitochondria was investigated in 6 cases showing blood pressures over 230 mmHg in the control group and 6 cases showing blood pressures under 212 mmHg in the group dosed with the present compound.

[6] = tested on: rats with spontaneous hypertension (Ta:SHR); assay: Blood pressure of Ta:SHR, oral gavage; assay type: in vivo, rat; conditions: 10 mg/kg/day oral gavage, mean ± standard error
Description: as §1

Action on phosphodiesterase % Inhibition [2]	% Inhibition on release of acid phosphatase ([3]; 2 × 10^-4 M)	% Inhibition on release of β-Glucuronidase ([3]; 2 × 10^-4 M)	SMILES	other results
			CC1=C(C)C(=O)C(C/C=C(\C)CCCO)=C(C)C1=O [drawing 28 R: H3 C]	Emax at 30 µg/mL [1]: 67%; Emax at 100 µg/mL [1]: 100%
			COC1=C(OC)C(=O)C(C/C=C(\C)CCCO)=C(C)C1=O [drawing 28 R: H3 CO]	Emax at 30 µg/mL [1]: 85.5%; Emax at 100 µg/mL [1]: 100%
42%	40%	36%	CC1=C(C)C(=O)C(C/C=C(\C)C(=O)O)=C(C)C1=O [drawing 13 R#2]	
41%	32%	37%	CC1=C(C)C(=O)C(C/C=C(\C)CO)=C(C)C1=O [drawing 15 R#1]	
			COC1=C(OC)C(=O)C(C/C=C(\C)CC/C=C(\C)CO)=C(C)C1=O	Succinate oxidase activity [oxygen consumption] [4]: 35.5 ± 3.5 (n atoms oxygen) min. per mg p
44%	21%	29%	CC1=C(C)C(=O)C(CCC(C)CO)=C(C)C1=O (centres unmarked) [drawing 19 R: H3 C]	
			COC1=C(OC)C(=O)C(CCC(C)CO)=C(C)C1=O (centres unmarked) [drawing 25]	Succinate oxidase activity [oxygen consumption] [4]: 12.5 (n atoms oxygen) min. per mg p
20%	48%	29%	CC1=C(C)C(=O)C(CC(O)C(C)C(=O)O)=C(C)C1=O (centres unmarked) [drawing 11 R#2]	
18%	16%	20%	CC(=CCC1=C(C)C(=O)C(C)=C(C)C1=O)CCC=C(C)CCC(C)(C)O [drawing 20 R#1]	
47%	44%	36%	COC1=C(OC)C(=O)C(C/C=C(\C)C(=O)O)=C(C)C1=O [drawing 13 R#1]	
			COC1=C(OC)C(=O)C(C/C=C(\C)CC/C=C(\C)CC/C=C(\C)CC/C=C(\C)CC/C=C(\C)CC/C=C(\C)CC/C=C(\C)CC/C=C(\C)CC/C=C(\C)CCC=C(C)C)=C(C)C1=O [Ubiquinone-10, ubiquinone-10]	Blood pressure ([5]; week 0): 206 ± 16 mmHg; Blood pressure ([5]; week 1): 191 ± 14 mmHg; Blood pressure ([5]; week 2): 187 ± 10 mmHg; Blood pressure ([5]; week 3): 199 ± 17 mmHg; Blood pressure ([5]; week 4): 205 ± 13 mmHg
60%	49%	18%	COC1=C(OC)C(=O)C(CC(O)C(C)C(=O)O)=C(C)C1=O (centres unmarked) [drawing 11 R#1]	
			COC1=C(OC)C(=O)C(C/C=C(\C)CC/C=C(\C)CC/C=C(\C)CO)=C(C)C1=O	Succinate oxidase activity [oxygen consumption] [4]: 42.4 ± 6.3 (n atoms oxygen) min. per mg p
29%			CC(=CCC1=C(C)C(=O)c2ccccc2C1=O)CCC=C(C)CCC(C)(C)O [drawing 20 R#2]	% Inhibition on release of acid phosphatase ([3]; 2 × 10^-5 M): 9%; % Inhibition on release of β-Glucuronidase ([3]; 2 × 10^-5 M): 18%
			COC1=C(OC)C(=O)C(C/C=C(\C)CCCO)=C(C)C1=O [drawing 24]	Succinate oxidase activity [oxygen consumption] [4]: 18.2 (n atoms oxygen) min. per mg p
53%			CC1=C(C)C(=O)C(C/C=C(\C)CCCO)=C(C)C1=O [drawing 17 R#2]	% Inhibition on release of acid phosphatase ([3]; 2 × 10^-5 M): 34%; % Inhibition on release of β-Glucuronidase ([3]; 2 × 10^-5 M): 23%
84%	37%	28%	COC1=C(OC)C(=O)C(C/C=C(\C)CCCO)=C(C)C1=O [drawing 17 R#1]	
			COC1=C(OC)C(=O)C(CC=C(C)CCCC(C)(C)O)=C(C)C1=O	Succinate oxidase activity [oxygen consumption] [4]: 21.4 (n atoms oxygen) min. per mg p
40%	35%	15%	CC1=C(CC(O)C(C)C(=O)O)C(=O)c2ccccc2C1=O (centres unmarked) [drawing 11 R#3]	
			CC1=C(C/C=C(\C)CCCO)C(=O)c2ccccc2C1=O [drawing 17 R#3]	% Inhibition on release of acid phosphatase ([3]; 2 × 10^-5 M): 36%; % Inhibition on release of β-Glucuronidase ([3]; 2 × 10^-5 M): 25%
			COC1=C(OC)C(=O)C(C/C=C(\C)CC/C=C(\C)CC/C=C(\C)CC/C=C(\C)CC/C=C(\C)CC/C=C(\C)CCC=C(C)C)=C(C)C1=O [Ubiquinone-7, ubiquinone-7, reference compound]	Blood pressure ([6]; week 0): 199 ± 9 mmHg; Blood pressure ([6]; week 1): 204 ± 9 mmHg; Blood pressure ([6]; week 2): 206 ± 11 mmHg
55%	39%	37%	CC1=C(C/C=C(\C)CO)C(=O)c2ccccc2C1=O [drawing 15 R#2]	
86%			CC1=C(C/C=C(\C)C(=O)O)C(=O)c2ccccc2C1=O [drawing 13 R#3]	
38%	43%	38%	COC1=C(OC)C(=O)C(CCC(C)CO)=C(C)C1=O (centres unmarked) [drawing 19 R: H3 CO]	

SMILES	Action on phosphodiesterase % Inhibition [2]	% Inhibition on release of acid phosphatase ([3]; 2 × 10^-4 M)	% Inhibition on release of β-Glucuronidase ([3]; 2 × 10^-4 M)	other results
Cn1c(=O)c2[nH]cnc2n(C)c1=O [theophylline, reference compound]	32%			Emax at 30 µg/mL [1]: 60.4%; Emax at 100 µg/mL [1]: 93%
